“And” between values parts separate entries of the source, which are not always exact repeats. Equal values may be shown once. Toxic doses and inconclusive results are not listed. How the source made its calls: active means survival T/C of 150% or more; inactive means T/C below 125% in these data.
Test system: CD2F1 mice, L1210 leukemia ip, survival T/C
Test: NCI In Vivo Anticancer Drug Screen. Data for tumor model L1210 Leukemia (intraperitoneal) in CD2F1 (CDF1) mice
Settings: higher = longer survival
Procedure, shortened: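 In this screen, transplantable tumors were grown in mice given either the compound or its vehicle. Results were expressed as the treated measurement relative to the control measurement.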

[1] = endpoint: mean survival time, dose: 100.0 mg/kg/injection, schedule: Q04DX002 (ip), vehicle: saline with Tween-80
[2] = endpoint: mean survival time, dose: 200.0 mg/kg/injection, schedule: Q04DX002 (ip), vehicle: saline with Tween-80
[3] = endpoint: mean survival time, dose: 400.0 mg/kg/injection, schedule: Q04DX002 (ip), vehicle: saline with Tween-80
[4] = endpoint: mean survival time, dose: 100.0 mg/kg/injection, schedule: Q01DX001 (ip), vehicle: saline with Tween-80
[5] = endpoint: mean survival time, dose: 100.0 mg/kg/injection, schedule: Q04DX003 (ip), vehicle: saline with Tween-80
[6] = endpoint: mean survival time, dose: 200.0 mg/kg/injection, schedule: Q01DX001 (ip), vehicle: saline with Tween-80
[7] = endpoint: mean survival time, dose: 200.0 mg/kg/injection, schedule: Q04DX003 (ip), vehicle: saline with Tween-80
[8] = endpoint: mean survival time, dose: 400.0 mg/kg/injection, schedule: Q01DX001 (ip), vehicle: saline with Tween-80
[9] = endpoint: mean survival time, dose: 400.0 mg/kg/injection, schedule: Q04DX003 (ip), vehicle: saline with Tween-80

Measured: T/C

c1ccc(-c2nc(/N=N/c3nc(-c4ccccc4)c(-c4ccccc4)[nH]3)[nH]c2-c2ccccc2)cc1
inactive: endpoint: mean survival time, dose: 100.0 mg/kg/injection, schedule: Q04DX002 (ip), vehicle: Klucel (hydroxypropylcellulose) (HPC) 96 % of control | endpoint: mean survival time, dose: 200.0 mg/kg/injection, schedule: Q04DX002 (ip), vehicle: Klucel (hydroxypropylcellulose) (HPC) 96 % of control | endpoint: mean survival time, dose: 400.0 mg/kg/injection, schedule: Q04DX002 (ip), vehicle: Klucel (hydroxypropylcellulose) (HPC) 100 % of control

c1cnc2c(c1)Nc1cc3ccccc3cc1N2
inactive: endpoint: mean survival time, dose: 100.0 mg/kg/injection, schedule: Q04DX002 (ip), vehicle: saline + alcohol 100 % of control | endpoint: mean survival time, dose: 200.0 mg/kg/injection, schedule: Q04DX002 (ip), vehicle: saline + alcohol 89 % of control | endpoint: mean survival time, dose: 400.0 mg/kg/injection, schedule: Q04DX002 (ip), vehicle: saline + alcohol 89 % of control

COC(=O)c1cocc1C(=O)OC
inactive: [1] 95 % of control | [2] 91 % of control | [3] 95 % of control

OCC1OC(n2ccc3c2ncn2cnnc32)C(O)C1O (stereo unspecified)
inactive: endpoint: mean survival time, dose: 6.25 mg/kg/injection, schedule: Q01DX005 (ip), vehicle: water 104 % of control | endpoint: mean survival time, dose: 12.5 mg/kg/injection, schedule: Q01DX005 (ip), vehicle: water 103 % of control | endpoint: mean survival time, dose: 25.0 mg/kg/injection, schedule: Q01DX005 (ip), vehicle: water 92 % of control | endpoint: mean survival time, dose: 50.0 mg/kg/injection, schedule: Q01DX005 (ip), vehicle: water 92 % of control | endpoint: mean survival time, dose: 100.0 mg/kg/injection, schedule: Q01DX005 (ip), vehicle: water 92 % of control | endpoint: mean survival time, dose: 200.0 mg/kg/injection, schedule: Q01DX005 (ip), vehicle: water 89 % of control | endpoint: mean survival time, dose: 400.0 mg/kg/injection, schedule: Q01DX005 (ip), vehicle: water 95 % of control

CCOC(CNc1ccc([N+](=O)[O-])cc1)OCC
inactive: [4] 95 % of control and 100 % of control | endpoint: mean survival time, dose: 100.0 mg/kg/injection, schedule: Q01DX009 (ip), vehicle: saline with Tween-80 100 % of control and 106 % of control | [1] 100 % of control | [5] 94 % of control | [6] 92 % of control and 97 % of control | endpoint: mean survival time, dose: 200.0 mg/kg/injection, schedule: Q01DX009 (ip), vehicle: saline with Tween-80 100 % of control and 102 % of control | [2] 98 % of control | [7] 104 % of control | [8] 101 % of control and 103 % of control | endpoint: mean survival time, dose: 400.0 mg/kg/injection, schedule: Q01DX009 (ip), vehicle: saline with Tween-80 120 % of control and 111 % of control | [3] 100 % of control | [9] 96 % of control

CN1COc2cc3c(cc2C1)OCN(C)C3
inactive: [4] 100 % of control | [6] 100 % of control

Cn1c(=O)c2[nH]c(-c3cccnc3)nc2n(C)c1=O
inactive: endpoint: mean survival time, dose: 12.5 mg/kg/injection, schedule: Q01DX005 (ip), vehicle: distilled water + Tween-80 92 % of control | endpoint: mean survival time, dose: 25.0 mg/kg/injection, schedule: Q01DX005 (ip), vehicle: distilled water + Tween-80 98 % of control | endpoint: mean survival time, dose: 50.0 mg/kg/injection, schedule: Q01DX005 (ip), vehicle: distilled water + Tween-80 98 % of control | endpoint: mean survival time, dose: 100.0 mg/kg/injection, schedule: Q01DX005 (ip), vehicle: distilled water + Tween-80 98 % of control | endpoint: mean survival time, dose: 200.0 mg/kg/injection, schedule: Q01DX005 (ip), vehicle: distilled water + Tween-80 116 % of control

O=C(C1CCC2(CCCCC2)CC1)n1ccnc1
inactive: endpoint: mean survival time, dose: 12.5 mg/kg/injection, schedule: Q01DX009 (ip), vehicle: other 95 % of control | endpoint: mean survival time, dose: 25.0 mg/kg/injection, schedule: Q01DX009 (ip), vehicle: other 89 % of control | endpoint: mean survival time, dose: 50.0 mg/kg/injection, schedule: Q01DX009 (ip), vehicle: other 106 % of control | endpoint: mean survival time, dose: 100.0 mg/kg/injection, schedule: Q01DX009 (ip), vehicle: other 93 % of control | endpoint: mean survival time, dose: 200.0 mg/kg/injection, schedule: Q01DX009 (ip), vehicle: other 97 % of control

OC(CN1CCCCC1)c1ccncc1 (stereo unspecified)
inactive: endpoint: mean survival time, dose: 75.0 mg/kg/injection, schedule: Q01DX001 (ip), vehicle: saline 95 % of control | endpoint: mean survival time, dose: 150.0 mg/kg/injection, schedule: Q01DX001 (ip), vehicle: saline 95 % of control | endpoint: mean survival time, dose: 300.0 mg/kg/injection, schedule: Q01DX001 (ip), vehicle: saline 95 % of control

CC1(C)C2C3C=CC(C3)C2S1(=O)=O (stereo unspecified)
inactive: endpoint: mean survival time, dose: 1.25 mg/kg/injection, schedule: Q01DX009 (ip), vehicle: saline with Tween-80 100 % of control | endpoint: mean survival time, dose: 1.25 mg/kg/injection, schedule: Q04DX003 (ip), vehicle: saline with Tween-80 110 % of control | endpoint: mean survival time, dose: 2.5 mg/kg/injection, schedule: Q01DX001 (ip), vehicle: saline 100 % of control | endpoint: mean survival time, dose: 2.5 mg/kg/injection, schedule: Q01DX009 (ip), vehicle: saline with Tween-80 101 % of control | endpoint: mean survival time, dose: 2.5 mg/kg/injection, schedule: Q04DX003 (ip), vehicle: saline with Tween-80 100 % of control | endpoint: mean survival time, dose: 5.0 mg/kg/injection, schedule: Q01DX001 (ip), vehicle: saline 100 % of control | endpoint: mean survival time, dose: 5.0 mg/kg/injection, schedule: Q01DX009 (ip), vehicle: saline with Tween-80 101 % of control | endpoint: mean survival time, dose: 5.0 mg/kg/injection, schedule: Q04DX003 (ip), vehicle: saline with Tween-80 107 % of control

O=c1ccocc1O
inactive: endpoint: mean survival time, dose: 200.0 mg/kg/injection, schedule: Q04DX002 (ip), vehicle: saline 95 % of control | endpoint: mean survival time, dose: 400.0 mg/kg/injection, schedule: Q04DX002 (ip), vehicle: saline 92 % of control

CCCC1C(CC)C=NN1C (stereo unspecified)
inactive: endpoint: mean survival time, dose: 100.0 mg/kg/injection, schedule: Q01DX001 (ip), vehicle: saline 102 % of control | endpoint: mean survival time, dose: 200.0 mg/kg/injection, schedule: Q01DX001 (ip), vehicle: saline 101 % of control | endpoint: mean survival time, dose: 400.0 mg/kg/injection, schedule: Q01DX001 (ip), vehicle: saline 98 % of control

O=C1c2ccccc2C(=O)c2c(NCCNCCNCCO)ccc(NCCNCCNCCO)c21
inactive: endpoint: mean survival time, dose: 8.0 mg/kg/injection, schedule: Q01DX009 (ip), vehicle: acid diluted with saline 100 % of control | endpoint: mean survival time, dose: 16.0 mg/kg/injection, schedule: Q01DX009 (ip), vehicle: acid diluted with saline 96 % of control | endpoint: mean survival time, dose: 32.0 mg/kg/injection, schedule: Q01DX009 (ip), vehicle: acid diluted with saline 108 % of control | endpoint: mean survival time, dose: 64.0 mg/kg/injection, schedule: Q01DX009 (ip), vehicle: acid diluted with saline 96 % of control

CN(C)C(=S)Nc1ccc(Cl)cc1
inactive: [5] 98 % of control | [7] 98 % of control | [9] 100 % of control

COc1ccc2c[n+](C)c3c4cc(OC)c(OC)cc4ccc3c2c1
inactive: endpoint: mean survival time, dose: 25.0 mg/kg/injection, schedule: Q04DX003 (ip), vehicle: saline with Tween-80 96 % of control

O=C(Nc1ccccc1)O/N=C(/c1ccccc1)c1ccccn1
inactive: endpoint: mean survival time, dose: 100.0 mg/kg/injection, schedule: Q01DX001 (ip), vehicle: other 104 % of control | endpoint: mean survival time, dose: 200.0 mg/kg/injection, schedule: Q01DX001 (ip), vehicle: other 98 % of control | endpoint: mean survival time, dose: 400.0 mg/kg/injection, schedule: Q01DX001 (ip), vehicle: other 101 % of control

O=C(Nc1cccc2ccccc12)c1ccccc1
inactive: [4] 95 % of control | [6] 95 % of control | [8] 92 % of control

N#CC(c1ccccc1)N(c1ccc(NS(=O)(=O)c2ccccc2)cc1)S(=O)(=O)c1ccccc1 (stereo unspecified)
inactive: [4] 93 % of control | [6] 96 % of control | [8] 89 % of control

CN=C(N)c1ccc(N=C(N)c2ccc(C(N)=Nc3ccc(C(N)=NC)cc3)cc2)cc1
inactive: endpoint: median survival time, dose: 3.75 mg/kg/injection, schedule: Q08HX018 (ip), vehicle: water 117 % of control | endpoint: median survival time, dose: 10.0 mg/kg/injection, schedule: Q01DX001 (iv), vehicle: saline 95 % of control | endpoint: median survival time, dose: 10.0 micrograms per hour, schedule: Q#X X001 (iv), vehicle: saline 97 % of control

From PubChem BioAssay AID256 (DTP/NCI, 2004)
